Like-named read-outs stand apart in the source and are kept apart here.
Legend:
S. aureus TOUR = experiment: In vitro antibacterial activity (MIC), S. aureus TOUR; assay type: cell-based
Protocol: Minimal inhibitory concentration (MIC) are determined by the twofold serial dilution method in Brain heart infusion broth (Difco); it is supplemented with 2% bovine serum when streptococci are tested. […] The MIC is defined as the lowest concentration which prevents visible growth after overnight incubation at 37° C. The influence of serum is determined on S. aureus Tour by adding 30% bovine serum to the medium. […] The antimicrobial activities of the compounds of the invention in comparison with reference compound (actagardine) are reported in the following Table IV:
^(2) In the presence of 30% bovine serum

S. pyogenes C 203 [1] = experiment: In vitro antibacterial activity (MIC), S. pyogenes C 203; assay type: cell-based; details: 2% bovine serum, ~10^3 CFU/ml
Protocol: (§1) Minimal inhibitory concentration (MIC) are determined by the twofold serial dilution method in Brain heart infusion broth (Difco); it is supplemented with 2% bovine serum when streptococci are tested. The inoculum size is about 10^3 colony units per ml (CFU/ml). The MIC is defined as the lowest concentration which prevents visible growth after overnight incubation at 37° C. The influence of serum is determined on S. aureus Tour by adding 30% bovine serum to the medium. […] The antimicrobial activities of the compounds of the invention in comparison with reference compound (actagardine) are reported in the following Table IV: […]

S. pneumoniae UC 41 = experiment: In vitro antibacterial activity (MIC), S. pneumoniae UC 41; assay type: cell-based; details: 2% bovine serum, ~10^3 CFU/ml
Protocol: as §1

S. mitis L 1320 = experiment: In vitro antibacterial activity (MIC), S. mitis L 1320; assay type: cell-based; details: S. mitis L 1320, clinical isolate; 2% bovine serum
Protocol: (§2) Minimal inhibitory concentration (MIC) are determined by the twofold serial dilution method in Brain heart infusion broth (Difco); it is supplemented with 2% bovine serum when streptococci are tested. The inoculum size is about 10^3 colony units per ml (CFU/ml). The MIC is defined as the lowest concentration which prevents visible growth after overnight incubation at 37° C. The influence of serum is determined on S. aureus Tour by adding 30% bovine serum to the medium. […] The antimicrobial activities of the compounds of the invention in comparison with reference compound (actagardine) are reported in the following Table IV:
(§3) ^(3) Clinical isolates.

S. faecalis D L 1321 = experiment: In vitro antibacterial activity (MIC), S. faecalis D L 1321; assay type: cell-based; details: S. faecalis D L 1321, clinical isolate; 2% bovine serum
Protocol: as §2, §3

S. salivarius L 1323 = experiment: In vitro antibacterial activity (MIC), S. salivarius L 1323; assay type: cell-based; details: S. salivarius L 1323, clinical isolate; 2% bovine serum
Protocol: as §2, §3

S. sanguis H L 1324 = experiment: In vitro antibacterial activity (MIC), S. sanguis H L 1324; assay type: cell-based; details: S. sanguis H L 1324, clinical isolate; 2% bovine serum
Protocol: as §2, §3

S. bovis D L 1325 = experiment: In vitro antibacterial activity (MIC), S. bovis D L 1325; assay type: cell-based; details: S. bovis D L 1325, clinical isolate; 2% bovine serum
Protocol: as §2, §3

S. pyogenes C 203 [2] = experiment: In vivo test in mice experimentally infected with S. pyogenes C 203; details: mice infected i.p. with S. pyogenes C 203; s.c. once a day for three days; survival on 10th day
Protocol: (§4) The antimicrobial activity of the compounds of the invention is also confirmed in in vivo test in mices experimentally infected with S. pyogenes or S. pneumoniae. The experiments are conducted essentially as described by R. Pallanza et al., J. Antimicrob. Chemother. 11, 419 (1983).
(§5) The experimental infection was induced in mice by intraperitoneally administering a suspension of the test pathogens. Inocula had been adjusted so that the untreated animals died of septicemia within 48 h. Animals were treated subcutaneously with the test compound once a day for three days starting about 30 min after infection.
(§6) The ED50 value was calculated on the 10th day by the method of Spearman and Karber (D. J. Finney "Statistical Method in Biological Assay", Griffin, page 524, 1952) on the basis of the percentage of survival at each dose.

[3] = Acid-base titration in MCS:H2O (pK of basic functions); assay type: physicochemical; details: MCS:H2O 4:1 (v/v)
Protocol: ^(2) Acid-base titrations were carried out in both aqueous
[methylcellosolve (MCS): water 4:1 (v/v)] and nonaqueous [pyridine or
acetic acid] solvents. The pKMCS values (pK2) of the additional
basic functions were determined in MCS:H2 O 4:1 (v/v) solution by
titration of the compounds with 0.01 N Na OH. The presence of the free
amino group of actagardine (pKMCS 6.3) in the derivatives, except
compound XIII, was confirmed by titration with 0.01 N HCl. Compound XIII
equivalent weights (E W) were obtained by titration with either
hydroxytetrabutylamine (HTBA) in pyridine or perchloric acid (HClO4)
actagardine (pKMCS 6.3) unmodified. Titration in MCS:H2 O 4:1

[4] = Partition coefficient (log P) between n-octanol and water; assay type: physicochemical
Protocol: ^(3) Partition coefficients (log P) were determined between noctanol
and water. The concentration of the compounds in each phase was determine
spectrophotometrically (UV).
^(6) 0.1 M acetate buffer pH 3.0.
is log P between noctanol and 0.1 M phosphate buffer pH 7.3.

S. pneumoniae UC41 = experiment: In vivo test in mice experimentally infected with S. pneumoniae UC41; details: mice infected i.p. with S. pneumoniae UC41; s.c. once a day for three days; survival on 10th day
Protocol: as §4, §5, §6

Solubility in water = details: for Solubility in water, pH 4.0 / Solubility in water, pH 7.3: approximate values
S. viridans L 1322 = experiment: In vitro antibacterial activity (MIC), S. viridans L 1322; assay type: cell-based; details: S. viridans L 1322, clinical isolate; 2% bovine serum
Protocol: as §2, §3

S. pyogenes C 203 [5] = experiment: Bactericidal activity against growing cells of S. pyogenes C 203; assay type: cell-based; details: 10 times the MIC, Todd-Hewitt broth, 37° C.
Protocol: The antibacterial activity of compound III (a and b) was compared with that of actagardine against growing cells of S. pyogenes C 203. […] For compound III, this level of killing action was obtained also at a dose equal to the MIC (0.4 ug/ml). This comparison was carried out on Todd-Hewitt broth(s) containing compound III and actagardine at concentrations equal to or multiple of the MIC which were inoculated with growing cells of S. pyogenes C 203 (~10^6 CFU/ml). The cultures were incubated at 37° C. with shaking and viable cells were counted at intervals.

gram-positive organisms = details: in vitro and in vivo; cited from earlier work
[6] = n-octanol/0.1 M acetate buffer pH 3.0
[7] = in the presence of 30% bovine serum

Substance | MIC (S. aureus TOUR; inoculum 10^3 CFU/ml) | MIC (S. pyogenes C 203 [1]) | MIC (S. pneumoniae UC 41) | MIC (S. mitis L 1320) | MIC (S. faecalis D L 1321) | MIC (S. salivarius L 1323) | MIC (S. sanguis H L 1324) | MIC (S. bovis D L 1325) | ED50 (S. pyogenes C 203 [2]) | Partition Coeff. (log P), CH3(CH2)7OH/H2O, pH 3 [4, 6] | Solubility in water, pH 4.0 (Solubility in water) | Solubility in water, pH 7.3 (Solubility in water) | MIC (S. aureus TOUR; [7]) | MIC (S. aureus TOUR; inoculum 10^6 CFU/ml) | MIC (S. viridans L 1322) | further results
N-ethyl actagardine 3,3-dimethylamino-1-propylamide monocarboxamide [Compound XIII] | 50 µg/mL | 0.8 µg/mL | 12.5 µg/mL | 3.1 µg/mL | 100 µg/mL | 0.8 µg/mL | 50 µg/mL | 25 µg/mL | 0.23 mg/kg | – | – | – | – | – | – | –
actagardine 3,3-dimethylamino-1-propylamide monocarboxamide, hydrochloride [IIIb] | – | – | – | – | – | – | – | – | 0.47 mg/kg | -1.644 | 600 mg/ml | 200 mg/ml | – | – | – | pk2 (MCS/H2O) ([3]; pKMCS of additional basic function, titration with 0.01 N NaOH): 9.2; ED50 (S. pneumoniae UC41): 3.5 mg/kg
actagardine N-(2-aminoethyl)-1,2-ethanediamine monocarboxamide [IV] | 50 µg/mL | 0.8 µg/mL | 12.5 µg/mL | 3.1 µg/mL | 100 µg/mL | 0.8 µg/mL | 50 µg/mL | 25 µg/mL | 0.62 mg/kg | – | – | – | 12.5 µg/mL | 50 µg/mL | 25 µg/mL | Partition Coeff. (log P), CH3(CH2)7OH/H2O, pH 3 ([4]; 0.1 m acetate buffer, pH 3): -1.353; Partition Coeff. (log P), CH3(CH2)7OH/H2O, H2O ([4]; distilled water): -0.680; Solubility in water, pH 4.0: 100 mg/ml
actagardine [reference compound] | 25 µg/mL | 1.6 µg/mL | 25 µg/mL | 12.5 µg/mL | 100 µg/mL | 3.1 µg/mL | 100 µg/mL | 100 µg/mL | 0.81 mg/kg | 0.357 | < 10 mg/ml | 70 mg/ml | 25 µg/mL | 50 µg/mL | 100 µg/mL | pKMCS of the free amino group of actagardine ([3]; titration with 0.01 N HCl): 6.3; log P between n-octanol and 0.1 M phosphate buffer pH 7.3 ([4]; n-octanol/0.1 M phosphate buffer pH 7.3): -0.545; killing effect (S. pyogenes C 203 [5]; 24 h): 99.9%; killing effect (S. pyogenes C 203 [5]; after 5 h of incubation): 99%; antimicrobial activity (in words) (gram-positive organisms): antimicrobial in vitro and in vivo activity against gram-positive organisms; solubility in water (in words) (Solubility in water; acid form): not soluble in water

Source: US4684644A, “Basic monocarboxyamide derivatives of actagardine having antibiotic activity and compositions thereof” (Gruppo Lepetit S.p.A., priority 1985, dated 1987)
